Laboratory results: PubChem BioAssay (NCI)
Several values for one entry are separate records, joined by “and”; a condition that tells them apart may be missing. Equal entries are not always repeated.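 Compound exposure: 48 hours, 5 concentrations, 96-well plates. GI50 is the concentration that inhibits growth by half. TGI denotes the concentration required for complete inhibition of growth.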

Columns and labels:
Test in all cases: DTP human tumour cell line panel, 48 h
[1] = system: DLD-1 colon
[2] = system: KM20L2 colon
[3] = system: LXFL 529 NSCLC
[4] = system: M19-MEL melanoma
[5] = system: DU-145 prostate
[6] = system: MDA-MB-435
[7] = system: NCI/ADR-RES ovarian
[8] = system: T-47D breast
[9] = system: MDA-MB-231 breast

SMILES	TGI [1]	TGI [2]	TGI [3]	TGI [4]	GI50 [5]	TGI [5]	GI50 [6]	TGI [6]	GI50 [7]	TGI [7]	GI50 [8]	TGI [8]	GI50 [9]	TGI [9]
C[Si](C)(C)[C@@]1([Se]c2ccccc2)CC[C@@H]1C(=O)c1ccccc1	> 100 µM	> 100 µM	> 100 µM	> 100 µM	–	–	–	–	–	–	–	–	–	–
Fc1cc(Nc2ccc3c(OCCCN4CCOCC4)cccc3n2)ccc1Cl	–	–	–	–	3.62 µM	13.1 µM	2.05 µM	4.83 µM	3.09 µM	11.2 µM	2.27 µM	7.16 µM	–	–
Cc1cc(I)cc(CN(C)CCCCN2CCCC2)c1O	–	–	–	–	35.8 µM	> 100 µM	11.1 µM	27.9 µM	35.2 µM	> 100 µM	15.7 µM	40.4 µM	18.8 µM	51.1 µM
Cc1ccc(Nc2ccnc(Nc3cccc(C(N)=O)c3)n2)cc1O	–	–	–	–	7.14 µM	> 25 µM	7.98 µM	> 25 µM	> 18.7 µM	> 25 µM	4.74 µM	> 21.2 µM	4.27 µM	> 25 µM
CC12CC(=O)NN=C1c1ccccc1C2 (centres undefined)	> 100 µM	> 100 µM	–	> 100 µM	–	–	–	–	–	–	–	–	–	–
O=C(O)C1C2CC3CC2CC31 (centres undefined)	–	–	> 100 µM	–	–	–	–	–	–	–	–	–	–	–
ClCc1ccc(Cn2cnc3ncnc(Cl)c32)cc1	–	–	–	–	–	–	5.82 µM	19.2 µM	1.81 µM	4.68 µM	1.29 µM	2.86 µM	1.76 µM	3.35 µM
O=c1c2c(=NCCCN3CCCC3)cc3c(=O)n(CCCN4CCCC4)c(=O)c4c(NCCCN5CCCC5)cc(c(O)n1CCCN1CCCC1)c2c4-3	–	–	–	–	2.96 µM	7.79 µM	3.04 µM	11.3 µM	20.2 µM	> 100 µM	2.89 µM	18.1 µM	4.89 µM	20.7 µM
CC(Cl)CC(=O)Nc1ccc2c(c1)oc(=O)c1cc(NC(=O)CC(C)Cl)ccc12 (centres undefined)	–	–	–	–	15.1 µM	34.1 µM	18.3 µM	> 100 µM	12.4 µM	51 µM	16.2 µM	> 100 µM	1.98 µM	23.7 µM
COc1cc(SC)ccc1C(=O)N1CCCC(C)C1 (centres undefined)	–	–	–	–	> 100 µM	> 100 µM	> 100 µM	> 100 µM	70.6 µM	> 100 µM	> 100 µM	> 100 µM	> 100 µM	> 100 µM
O=[N+]([O-])C(=C(c1ccccc1)c1ccccc1)[N+](=O)[O-]	19.8 µM	32.1 µM	29.2 µM	–	–	–	–	–	–	–	–	–	–	–
COc1ccc(/C=C/CO)cc1OC	–	> 100 µM	> 100 µM	> 100 µM	–	–	–	–	–	–	–	–	–	–
COc1ccccc1OCC(O)CO (centres undefined)	–	–	–	–	> 100 µM	> 100 µM	> 100 µM	> 100 µM	> 100 µM	> 100 µM	> 100 µM	> 100 µM	> 100 µM	> 100 µM
C=C(C)[C@@H]1CC[C@]2(C#N)CC[C@]3(C)[C@H](CC[C@@H]4[C@@]5(C)CCCNC(C)(C)[C@@H]5CC[C@]43C)[C@@H]12	–	–	–	–	1.85 µM	3.48 µM	1.92 µM	3.78 µM	1.89 µM	3.63 µM	1.76 µM	4.05 µM	1.84 µM	3.38 µM
Fc1ccc(-c2c(-c3ccncc3)n(CCN3CCOCC3)c3cccnc23)cc1	–	–	–	–	> 25 µM	> 25 µM	> 25 µM	> 25 µM	> 25 µM	> 25 µM	> 25 µM	> 25 µM	> 25 µM	> 25 µM
COc1ccc2c3c([nH]c2c1)[C@H]1C[C@H]2[C@H](C[C@@H](O)[C@H](OC)[C@H]2C(=O)O)CN1CC3	–	–	–	–	–	> 100 µM	–	> 100 µM	–	> 100 µM	–	> 100 µM	–	> 100 µM
COCCn1cc(-c2csc(-c3c[nH]c4ccc(F)cc34)n2)c2cccnc21	–	–	–	–	18.8 µM	> 100 µM	0.89 µM	14.3 µM	2.17 µM	29.2 µM	–	–	2.59 µM	> 100 µM
CN(C)c1ccc(/C=N/Nc2ccc(-c3nc4ccccc4[nH]3)cc2)cc1	–	–	–	–	37.8 µM	> 50 µM	8.25 µM	> 50 µM	10.7 µM	32 µM	8.95 µM	40.9 µM	13.4 µM	42.1 µM
C[C@H]1CC(=O)[C@@]2(O)C#C/C=C\C#C[C@@H]3Nc4c(cc(O)c5c4C(=O)c4ccccc4C5=O)[C@]24O[C@]314	–	–	–	–	0.0025 µM	–	0.0196 µM	0.219 µM and 0.262 µM	–	0.44 µM	–	0.612 µM	–	> 25 µM
O=C(O)CCN1C(=O)/C(=C/C(Cl)=C/c2ccccc2)SC1=S	–	–	–	–	3.14 µM	12.4 µM	2.95 µM	11.6 µM	2.6 µM	9.59 µM	1.71 µM	6.52 µM	3.38 µM	11 µM
CC(C)=CCC[C@](C)(O)[C@H]1CC[C@]2(C)[C@@H]1CC[C@@H]1[C@@]3(C)CC[C@H](OC(=O)CCC(=O)O)C(C)(C)[C@@H]3CC[C@]12C	–	–	–	–	27.5 µM	> 100 µM	29.3 µM	> 100 µM	30.4 µM	> 100 µM	19.4 µM	> 100 µM	30.1 µM	87.5 µM
CCn1c(-c2cc3ccccc3cc2OC(=O)c2ccccc2)n[nH]c1=S	–	–	–	–	> 50 µM	> 50 µM	> 50 µM	> 50 µM	23.2 µM	> 50 µM	38.3 µM	> 50 µM	25.2 µM	> 50 µM
C[C@@H]1CC[C@H]2C(CN3CCN(CC4=C(C(F)(F)F)O[C@@H]5O[C@@]6(C)CC[C@H]7[C@H](C)CC[C@@H]4[C@@]57OO6)CC3)=C(C(F)(F)F)O[C@@H]3O[C@@]4(C)CC[C@@H]1[C@]32OO4	–	–	–	–	16.9 µM	> 100 µM	1.09 µM	> 100 µM	> 100 µM	> 100 µM	0.458 µM	> 100 µM	7.85 µM	> 27.7 µM
COc1cc(C(=O)c2c(-c3ccccc3)oc3ccccc23)cc(OC)c1O	–	–	–	–	3.15 µM	13.6 µM	0.285 µM	0.777 µM	0.876 µM	20 µM	2.14 µM	31.8 µM	4.24 µM	22.5 µM
